Measured values reported in patent US9464064B2, “HCV helicase inhibitors and methods of use thereof” (University of Kansas, priority 2011, dated 2016).

Target: T1, HCV NS3 helicase NS3h_1b(con1) (Hepatitis C virus genotype 1b, UniProt Q9WMX2)
T1 construct: truncated C-terminally His-tagged NS3 proteins lacking the N-terminal protease, called NS3h; His-tag (C); made in house
Experiment: MBHA screen of NCI mechanistic set library at 20 μM (percent inhibition, compound interference)
Format: biochemical
Conditions: compounds at 20 μM; for Inh. (%) (Inhibition): calculated from Equation 1
How it was run: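 Molecular beacon-based DNA unwinding assay; compounds screened at 20 μM in triplicate, with DMSO-only negative and 500 nM dT20 positive controls. Fluorescence (ex 643/em 670 nm) was read before and 30 min after adding ATP to 1 mM. Percent inhibition came from the change relative to DMSO controls; interference from pre-ATP fluorescence versus DMSO controls.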

[1] = MBHA with DNA substrate, assay interference calculated with Equation 2
[2] = assay interference calculated with Equation 2 (fluorescence vs DMSO-only controls before ATP)

T1 sequence (Q9WMX2 1192-1657): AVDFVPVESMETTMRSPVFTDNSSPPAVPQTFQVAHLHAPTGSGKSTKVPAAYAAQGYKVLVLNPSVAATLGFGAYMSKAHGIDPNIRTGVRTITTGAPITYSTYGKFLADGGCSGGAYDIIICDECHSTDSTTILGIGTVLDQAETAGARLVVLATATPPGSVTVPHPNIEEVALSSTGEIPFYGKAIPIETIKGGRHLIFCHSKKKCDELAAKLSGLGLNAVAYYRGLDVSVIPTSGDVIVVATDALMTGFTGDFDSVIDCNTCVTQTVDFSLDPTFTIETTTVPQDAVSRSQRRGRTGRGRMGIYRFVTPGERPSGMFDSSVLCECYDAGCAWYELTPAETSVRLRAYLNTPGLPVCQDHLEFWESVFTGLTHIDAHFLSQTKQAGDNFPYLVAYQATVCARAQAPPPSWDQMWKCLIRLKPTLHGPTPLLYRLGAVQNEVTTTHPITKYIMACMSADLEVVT

Compound	Int.* (Ratio) (Interference) [1]	Inh. (%) (Inhibition) (MBHA with DNA substrate)	Inh. (%) (Inhibition) (MBHA with a DNA substrate)	Int.* (Ratio) (Interference) [2]	Inh. (%) (Inhibition) (MBHA with DNA substrate, 20 µM)
CC(=O)OC1CC(n2cc(F)c(=O)[nH]c2=O)OC1CO (centres unmarked) [Compound 407335]	0.88	3.5	–	–	–
CC12CCC(O)CC1CCC1C2CCC2(C)C(C3=CC(=O)OC3)CCC12O (centres unmarked) [Compound 407806]	1.00	−11.1	–	–	–
Cc1cc(O)c2c(c1)C(=O)c1cc(O)cc(O)c1C2=O [Compound 408120]	–	–	−29.4	1.05	–
CC(C)(O)C=CC(=O)C(C)(O)C1C(O)CC2(C)C3CC=C4C(C=C(O)C(=O)C4(C)C)C3(C)C(=O)CC12C (centres unmarked) [Compound 521777]	0.90	5.8	–	–	–
CSC1SC[C@H]2C(=O)N(C)[C@@H](C(C)C)C(=O)OC[C@@H](NC(=O)c3cnc4ccccc4n3)C(=O)N[C@@H](C)C(=O)N(C)[C@@H]1C(=O)N(C)[C@@H](C(C)C)C(=O)OC[C@@H](NC(=O)c1cnc3ccccc3n1)C(=O)N[C@@H](C)C(=O)N2C (some centres unmarked) [Compound 526417]	0.86	55.2	–	–	–
N[C@@H](CN(O)N=O)C(=O)O [Compound 529469]	0.89	18.9	–	–	–
CC(C)c1ccc2nc3ccc(C(=O)NCCN(C)C)cn3c(=O)c2c1 [Compound 600305]	0.91	26.6	–	–	–
CCCCCn1cc2c3c(cccc31)C1C=C(C)CN(C)[C@@H]1C2.Cc1ccc(C(=O)OC(C(=O)O)C(OC(=O)c2ccc(C)cc2)C(=O)O)cc1 (centres unmarked) [Compound 600681]	0.95	−19.1	–	–	–
CCN(CC)CCOc1ccccc1/C=C/c1noc2ccccc12.Cl [Compound 601101]	0.97	−7.8	–	–	–
Cc1nc2c(nc1C)C(=O)c1ccccc1C2=O [Compound 602617]	0.97	3.9	–	–	–
CN(C)c1cccc(F)c1C(=O)NC(=O)Nc1ccc(Cl)cc1 [Compound 603108]	1.03	−8.6	–	–	–
C[n+]1c(-c2ccc(/C=C/C=N/NC(=O)c3ccc(C(=O)N/N=C/C=C/c4ccc(-c5cn6ccccc6[n+]5C)cc4)cc3)cc2)cn2ccccc21.Cc1ccc(S(=O)(=O)O)cc1 [Compound 603169]	0.22	26.2	–	–	–
C[Si](C)(CN)CN.[Cl][Pt][Cl] [Compound 603577]	0.93	13.5	–	–	–
Cc1ccc(S(=O)(=O)NC(=O)NC2=NC(C)(C)N(c3ccc(Cl)c(Cl)c3)C(N)=N2)cc1 [Compound 603624]	–	–	7.5	0.92	–
O=c1[nH]c2ccc(O)cc2o1 [Compound 603719]	–	–	−5.7	1.20	–
C[C@H](CSC(=O)c1ccccc1)C(=O)N1c2ccccc2C[C@H]1C(=O)O [Compound 604535]	1.08	1.0	–	–	–
CCCCCCCCCCCCCCCCOP(=O)([O-])OCC[N+](C)(C)C [Compound 605583]	0.89	−10.9	–	–	–
Cl.Nc1ccc2cc3ccc(N)cc3nc2c1 [Compound 605756]	0.33	14.1	–	–	–
CC(C)(C)OC(=O)NC(Cc1ccccc1)C(=O)OCN1C(=O)C2C3C=CC(C2C1=O)C1C2C(=O)N(COC(=O)C(Cc4ccccc4)NC(=O)OC(C)(C)C)C(=O)C2C31 (centres unmarked) [Compound 607316]	0.97	−1.8	–	–	–
O=[N+]([O-])c1ccc(-c2cn(-c3ccc(Cl)cc3)cn2)cc1 [Compound 610744]	0.83	21.5	–	–	–
COc1cc(C(O)CCBr)c(OC)cc1C (centres unmarked) [Compound 611750]	0.94	−8.1	–	–	–
C/C1=C\[C@H](C)C[C@H](C)OC(=O)CC(c2ccc(O)cc2)NC(=O)[C@@H](Cc2c(Br)[nH]c3ccccc23)N(C)C(=O)[C@H](C)NC(=O)[C@@H](C)C1 (some centres unmarked) [Compound 613009]	–	–	−21.7	0.94	–
CC(=O)Oc1ccc(C(c2ccc(OC(C)=O)cc2)c2ccccn2)cc1 [Compound 614826]	–	–	−4.8	1.06	–
CC1(C)C(O)OC(O)C1(C)C (centres unmarked) [Compound 614928]	0.99	19.1	–	–	–
C=C(C#N)C(=O)OCC(CC)CC.C=C(C#N)C(=O)OCC(CC)CC.CS(C)=O.CS(C)=O.Nc1c(N=Nc2ccc(-c3ccc(N=Nc4cc(S(=O)(=O)[O-])c5ccccc5c4N)cc3)cc2)cc(S(=O)(=O)[O-])c2ccccc12.[Pt+2] [Compound 615593]	0.91	−17.7	–	–	–
OC(CBr)C(O)C(O)C(O)CBr (centres unmarked) [Compound 616232]	1.02	−0.6	–	–	–

Compound	Int.* (Ratio) (Interference) [1]	Inh. (%) (Inhibition) (MBHA with DNA substrate)	Inh. (%) (Inhibition) (MBHA with a DNA substrate)	Int.* (Ratio) (Interference) [2]	Inh. (%) (Inhibition) (MBHA with DNA substrate, 20 µM)
CC(C)(C)[Si](C)(C)OCC1CCC(n2cnc3c(N)ncnc32)O1 (centres unmarked) [Compound 616355]	1.01	−12.6	–	–	–
CCCCCC/C=C\CCCCCCCCCc1cccc(OC)c1O [Compound 617540]	–	–	−28.4	1.11	–
Cl.Nc1nccc2c1ncn2C1C=C(CO)C(O)C1O (centres unmarked) [Compound 617989]	0.96	−12.9	–	–	–
COc1ccc2c(c1)C=C([N+](=O)[O-])C(C1OC(C)(C)OC1C1COC(C)(C)O1)O2 (centres unmarked) [Compound 618261]	–	–	−6.4	0.95	–
O=C1C(Br)=C(Br)C(=O)c2ccccc21 [Compound 618332]	1.03	−18.7	–	–	–
C/C=C(\CCC1NCCc2c1[nH]c1ccccc21)[Si](C)(C)C (centres unmarked) [Compound 619165]	0.89	13.6	–	–	–
[Cl-].[Cl-].[Cl-].[Rh+3].c1ccc(-c2ccnc3c2ccc2c(-c4ccccc4)ccnc23)cc1.c1ccc(-c2ccnc3c2ccc2c(-c4ccccc4)ccnc23)cc1.c1ccc(-c2ccnc3c2ccc2c(-c4ccccc4)ccnc23)cc1 [Compound 619179]	0.44	23.8	–	–	–
O=C([O-])c1cc(I)cc(I)c1O.O=C([O-])c1cc(I)cc(I)c1O.[Mn+2] [Compound 619907]	–	–	−27.2	0.86	–
COC(=O)C[S+]([O-])c1ccccc1 (centres unmarked) [Compound 620050]	–	–	−3.3	0.96	–
N#CCCN(CCC#N)c1ccc(C=Nc2ccc(F)cc2)cc1 [Compound 620277]	0.93	17.1	–	–	–
CCOC(=O)c1ccc(N=Cc2ccc(N(CCC#N)CCC#N)cc2)cc1 [Compound 620279]	–	–	−45.1	1.17	–
Cc1c(N=Cc2ccc(N(CCC#N)CCC#N)cc2)c(=O)n(-c2ccccc2)n1C [Compound 620280]	–	–	−30.3	1.01	–
C=C1C(=O)C23CC[C@@H]4C(C)(C(=O)OC)CCCC4(C)[C@@H]2CCC1(O)C3 (some centres unmarked) [Compound 620358]	0.91	−10.5	–	–	–
CC1=NN(C(=O)c2ccncc2)C(=O)C1N=Nc1ccc(F)cc1 (centres unmarked) [Compound 621094]	0.98	−2.8	–	–	–
Cc1cc2c(cc1C)[n+](=O)c(C(=O)/C=C/c1ccccc1[N+](=O)[O-])c(C)n2[O-] [Compound 621486]	1.16	−10.4	–	–	–
C[N+](C)(C)CC1CCCC1=O.[I-] (centres unmarked) [Compound 621889]	1.08	12.2	–	–	–
[Mo] [Compound 622116]	0.97	–	–	–	3.5
[Mo] [Compound 622124]	1.11	–	–	–	54.2
COC1=CC(=O)c2c(ccc3ncnc(N)c23)C1=O [Compound 622190]	1.09	4.9	–	–	–
COc1ccc(-n2/c(=N/C(=S)N(C)C)ss/c2=N\C(=S)N(C)C)cc1 [Compound 622586]	0.93	−14.9	–	–	–
CN(C)C(=S)/N=c1\ss/c(=N\C(=S)N(C)C)n1-c1ccc2c(c1)OCO2 [Compound 622589]	–	–	−21.0	0.94	–
Br.CN(C)c1nc(=NCc2ccco2)ss1 [Compound 622608]	1.01	−2.1	–	–	–
CCOC(=O)CCc1c(C)c2c(O)cc(O)cc2oc1=O [Compound 622616]	–	–	−6.5	0.95	–
O=[N+]([O-])c1cc(C(F)(F)F)cc([N+](=O)[O-])c1CCl [Compound 622627]	–	–	−26.2	1.09	–
NC(=O)c1c([N+](=O)[O-])cc(C(F)(F)F)cc1[N+](=O)[O-] [Compound 622640]	1.10	−13.4	–	–	–
CCOC(=O)/N=C(\N)SCc1ccccc1.Cl [Compound 622684]	1.04	−1.3	–	–	–
